Entries after “also recorded” stand apart in the source; their conditions may differ.
Key:
[1] = system: mold cultures; test: ASTM D3273 four week mold resistance test of gypsum product made with wax emulsion containing thiabendazole; conditions: 0.2% thiabendazole post-added to wax emulsion; closed chamber with potting soil and mold cultures, about 90° F., relative humidity 95% to 98%; first weeks of the test
Experimental: A wax emulsion formulation was prepared with the following components: G Wax (a paraffin wax) 33%, Montan wax 3.3%, alkyl phenol 0.5%, Disal 0.5%, potassium hydroxide 0.75%, ammonium hepta molybdonate 0.01%, starch 0.09%, polyfon H (lignosulfonic acid, sodium salt) 0.5%, water 61.35%. To this wax emulsion was post-added 0.2% thiabendazole, commercially available from Supreme Chemical of Cumming, Ga. under the trade designation MC-2. The wax emulsion was used to prepare a gypsum product. The resulting gypsum product was tested according to ASTM D3273. During this four week test, a sample of the subject material, such as a gypsum board, is placed in a closed chamber along with potting soil and mold cultures at a constant temperature of about 90° F. (32.2° C.) and relative humidity of 95% to 98%. The condition of the test sample is monitored weekly to determine the extent, if any, of mold growth.

[2] = system: biological growth; test: Biological growth on particle board coupons (urea-formaldehyde binder) made with test emulsions, placed in various environments; conditions: emulsions with 1% or 2% thiabendazole by weight of the wax; emulsion 0.4% solids by weight of furnish; soaked and non-soaked coupons; constant humidity, rooftop, warehouse, laboratory; after six weeks (control coupons showed growth after first week)
Experimental: In other tests, test emulsions as described above was used to prepare sample particle board coupons comprising a urea-formaldehyde binder. Some test emulsions contained 1% thiabendazole, others 2%, by weight of the wax in the emulsions. The emulsion was added to the furnish from which the coupons were formed in an amount of 0.4% solids, by weight of the furnish. Some of the coupons were soaked in water for twenty-four hours before testing. For the test, various soaked and non-soaked coupons were placed in various environments including constant humidity conditions (72° F. (22.2° C.), 72% relative humidity (RH)), outdoor rooftop environmental conditions (exposed to air but shielded from direct impingement by precipitation); and indoors in an uncontrolled warehouse and in a laboratory environment, beside a water bath. Control coupons prepared and treated similarly were also place in these environments.

With `c1ccc2[nH]c(-c3cscn3)nc2c1` [thiabendazole, 2-(4′-thiazolyl) benzimidazole] the “biological (mold) growth on gypsum product” value [1] was “effective in inhibiting the growth of biological agents on gypsum board; also recorded: no biological growth” and the “visible biological growth on particle board coupons” value [2] was “none of the sample coupons made with thiabendazole had any visible growth”.

From US7294189B2, “Wax emulsion preservative compositions and method of manufacture” (Hexion Specialty Chemicals, Inc., priority 2002, dated 2007)
